For 26 molecules, IC50 results are on record in US11078197B2, “5-membered and bicyclic heterocyclic amides as inhibitors of rock” (BRISTOL-MYERS SQUIBB COMPANY, priority 2017, dated 2021).

The experiment concerns the target ROCK2 (Homo sapiens (Human), UniProt O75116). Kind of experiment: ROCK2 assay (peptide phosphorylation, LABCHIP 3000 Reader). In kind it is biochemical. The conditions noted are these: 5 μM ATP, 1.5 μM peptide substrate, dose-response. As for the experimental part: After incubation, the reaction was terminated by the addition of EDTA and the phosphorylated and non-phosphorylated peptides separated using a LABCHIP®3000 Reader (Caliper Life Sciences). […] Compounds were tested in dose-response format, and the inhibition of kinase activity was calculated at each concentration of compound. […] Representative Examples were tested in the ROCK2 assay described above and found having ROCK2 inhibitory activity.

Sequence of ROCK2 (O75116 whole entry, species assumed): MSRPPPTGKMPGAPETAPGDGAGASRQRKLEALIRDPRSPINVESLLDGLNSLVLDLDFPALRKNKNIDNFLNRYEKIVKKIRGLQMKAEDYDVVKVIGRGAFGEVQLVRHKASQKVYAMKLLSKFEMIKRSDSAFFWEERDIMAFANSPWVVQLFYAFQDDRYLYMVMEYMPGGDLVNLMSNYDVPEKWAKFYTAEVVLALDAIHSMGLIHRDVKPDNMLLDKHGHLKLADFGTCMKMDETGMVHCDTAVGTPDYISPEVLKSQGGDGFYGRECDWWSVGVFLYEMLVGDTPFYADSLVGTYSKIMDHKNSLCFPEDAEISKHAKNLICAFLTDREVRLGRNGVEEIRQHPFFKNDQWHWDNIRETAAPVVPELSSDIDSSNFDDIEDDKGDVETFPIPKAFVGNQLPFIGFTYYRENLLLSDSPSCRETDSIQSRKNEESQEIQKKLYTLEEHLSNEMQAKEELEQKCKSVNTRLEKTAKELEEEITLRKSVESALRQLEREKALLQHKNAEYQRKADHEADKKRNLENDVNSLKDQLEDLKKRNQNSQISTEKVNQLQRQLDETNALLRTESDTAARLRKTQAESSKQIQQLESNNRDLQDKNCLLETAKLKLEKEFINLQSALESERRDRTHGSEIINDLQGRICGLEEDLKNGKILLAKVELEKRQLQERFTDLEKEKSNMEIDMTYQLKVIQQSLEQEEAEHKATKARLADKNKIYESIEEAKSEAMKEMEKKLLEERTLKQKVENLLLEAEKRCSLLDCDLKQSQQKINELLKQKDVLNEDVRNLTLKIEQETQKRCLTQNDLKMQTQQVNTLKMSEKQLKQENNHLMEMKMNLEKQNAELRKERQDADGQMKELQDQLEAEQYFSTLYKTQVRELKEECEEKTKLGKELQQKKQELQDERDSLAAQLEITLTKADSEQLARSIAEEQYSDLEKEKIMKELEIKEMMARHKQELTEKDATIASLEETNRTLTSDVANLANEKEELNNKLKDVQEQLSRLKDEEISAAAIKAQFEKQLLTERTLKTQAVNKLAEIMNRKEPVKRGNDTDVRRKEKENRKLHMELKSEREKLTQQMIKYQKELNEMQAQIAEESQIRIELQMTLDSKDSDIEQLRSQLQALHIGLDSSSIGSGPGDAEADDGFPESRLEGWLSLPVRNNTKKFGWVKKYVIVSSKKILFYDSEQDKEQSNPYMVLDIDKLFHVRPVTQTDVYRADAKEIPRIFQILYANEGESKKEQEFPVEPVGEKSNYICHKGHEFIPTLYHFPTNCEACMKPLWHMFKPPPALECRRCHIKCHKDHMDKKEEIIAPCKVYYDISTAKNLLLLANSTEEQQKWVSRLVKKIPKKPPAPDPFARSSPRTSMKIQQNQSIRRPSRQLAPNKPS

For orientation: IC50 means the concentration at which inhibition is half-maximal. Low values mean inhibition by little substance, high ones a need for much substance. `Cc1c(C(=O)N[C@H]2C[C@]3(C2)C[C@H](Oc2nn4ccccc4c2C(N)=O)C3)cnn1-c1ccc(C(F)(F)F)cn1` (some centres unmarked) [Example 120, 5-methyl-N-[(4s)-6-({3-carbamoylpyrazolo[1,5-a]pyridin-2-yl}oxy)spiro[3.3]heptan-2-yl]-1-[5-(trifluoromethyl)pyridin-2-yl]-1H-pyrazole-4-carboxamide] displayed a half-inhibitory concentration (IC50) of 805 nM.
In turn, `Cn1ncc2cc(C(N)=O)c(O[C@H]3C[C@@]4(C[C@H](NC(=O)c5cnc6c(cnn6CC(F)F)c5)C4)C3)nc21` (some centres unmarked) [Example 157, 1-methyl-6-{[(4s)-6-[1-(2,2-difluoroethyl)-1H-pyrazolo[3,4-b]pyridine-5-amido]spiro[3.3]heptan-2-yl]oxy}-1H-pyrazolo[3,4-b]pyridine-5-carboxamide] returned an IC50 of 10.9 nM.
As for `Cc1nc(O[C@H]2C[C@@]3(C[C@H](NC(=O)c4cnn5c(C6CC6)c(OCC(C)(C)O)ccc45)C3)C2)c(C(N)=O)s1` (stereo partly drawn) [Example 22, 4-({(aR)-6-[7-cyclopropyl-6-(2-hydroxy-2-methylpropoxy)pyrazolo [1,5-a]pyridine-3-amido]spiro[3.3]heptan-2-yl}oxy)-2-methyl-1,3-thiazole-5-carboxamide], the figure is 7 nM; as for `Cc1sc2cc(C(N)=O)c(O[C@H]3C[C@@]4(C[C@H](NC(=O)c5cccc(C#N)c5)C4)C3)nc2c1C` (stereo partly drawn) [Example 95, 2,3-dimethyl-5-{[(aR)-6-(3-cyanobenzamido)spiro[3.3]heptan-2-yl]oxy}thieno[3,2-b]pyridine-6-carboxamide], 79 nM.
Then `Cn1cc(C(N)=O)c(O[C@H]2C[C@@]3(C[C@H](NC(=O)c4nn(C(F)F)c5cc(OCC(C)(C)O)ccc45)C3)C2)n1` (stereo partly drawn) [Example 36, N-{(aR)-6-[(4-carbamoyl-1-methyl-1H-pyrazol-3-yl)oxy]spiro[3.3]heptan-2-yl}-1-(difluoromethyl)-6-(2-hydroxy-2-methylpropoxy)-1H-indazole-3-carboxamide], with 22.4 nM; and `CC(C)(O)COc1ccc2c(C(=O)N[C@H]3C[C@]4(C3)C[C@H](Oc3nn5cc(F)ccc5c3C(N)=O)C4)nn(C(F)F)c2c1` (some centres unmarked) [Example 128, 1-(difluoromethyl)-6-(2-hydroxy-2-methylpropoxy)-N-[(4s)-6-({3-carbamoyl-6-fluoropyrazolo[1,5-a]pyridin-2-yl}oxy)spiro[3.3]heptan-2-yl]-1H-indazole-3-carboxamide], with 83.2 nM; and `COCCn1ncc(C(N)=O)c1O[C@H]1C[C@@]2(C[C@H](NC(=O)c3cnn4c(C5CC5)c(OCC(C)(C)O)ccc34)C2)C1` (stereo partly drawn) [Example 24, 5-({(aR)-6-[7-cyclopropyl-6-(2-hydroxy-2-methylpropoxy)pyrazolo [1,5-a]pyridine-3-amido]spiro[3.3]heptan-2-yl}oxy)-1-(2-methoxyethyl)-1H-pyrazole-4-carboxamide], with 1480 nM.
`CC(C)(O)COc1ccc2c(C(=O)N[C@H]3C[C@]4(C3)C[C@H](Oc3nn5cc(-c6ccc(F)nc6)ccc5c3C(N)=O)C4)nn(C(F)F)c2c1` (some centres unmarked) [Example 135, 1-(difluoromethyl)-6-(2-hydroxy-2-methylpropoxy)-N-[(4s)-6-{[3-carbamoyl-6-(6-fluoropyridin-3-yl)pyrazolo[1,5-a]pyridin-2-yl]oxy}spiro[3.3]heptan-2-yl]-1H-indazole-3-carboxamide] yielded an IC50 of 390 nM.
With `N#CCc1cccc(C(=O)N[C@H]2C[C@]3(C2)C[C@H](Oc2nc4c(cc2C(N)=O)COCC4)C3)c1` (stereo partly drawn) [Example 88, 2-{[(aR)-6-[3-(cyanomethyl)benzamido]spiro[3.3]heptan-2-yl]oxy}-5H,7H,8H-pyrano[4,3-b]pyridine-3-carboxamide], the half-maximal inhibitory concentration (IC50) came to 35 nM.
`N#Cc1cccc(C(=O)N[C@H]2C[C@]3(C2)C[C@H](Oc2nc4ccsc4cc2C(N)=O)C3)c1` (stereo partly drawn) [Example 83, 5-{[(aR)-6-(3-cyanobenzamido)spiro[3.3]heptan-2-yl]oxy}thieno[3,2-b]pyridine-6-carboxamide] came in with an IC50 of 9.7 nM. Against the preceding molecule, the IC50 is about 3.6-fold lower.
`NC(=O)c1cc2c(nc1O[C@H]1C[C@@]3(C[C@H](NC(=O)c4cccc(OC(F)(F)F)c4)C3)C1)CCOC2` (some centres unmarked) [Example 143, 2-{[(4s)-6-[3-(trifluoromethoxy)benzamido]spiro[3.3]heptan-2-yl]oxy}-5H,7H,8H-pyrano[4,3-b]pyridine-3-carboxamide] had an IC50 of 109 nM. Against the preceding molecule, the IC50 is about 11-fold higher.
As to `NC(=O)c1cn(C2CC2)nc1O[C@H]1C[C@@]2(C[C@H](NC(=O)c3cnn4cc(OCC(F)(F)F)ccc34)C2)C1` (stereo partly drawn) [Example 56, 1-cyclopropyl-3-{[(aR)-6-[6-(2,2,2-trifluoroethoxy)pyrazolo [1,5-a]pyridine-3-amido]spiro[3.3]heptan-2-yl]oxy}-1H-pyrazole-4-carboxamide], inhibition was half-maximal at 53.2 nM (IC50).
Then `CC(C)(O)COc1ccc2c(C(=O)N[C@H]3C[C@]4(C3)C[C@H](Oc3nn(CCCN)cc3C(N)=O)C4)cnn2c1C1CC1` (stereo partly drawn) [Example 27, 1-(3-aminopropyl)-3-({(aR)-6-[7-cyclopropyl-6-(2-hydroxy-2-methylpropoxy)pyrazolo [1,5-a]pyridine-3-amido]spiro[3.3]heptan-2-yl}oxy)-1H-pyrazole-4-carboxamide], with 13.8 nM; and `NC(=O)c1cc2c(nc1O[C@H]1C[C@@]3(C[C@H](NC(=O)c4cnc5ccc(F)cc5c4)C3)C1)CCOC2` (stereo partly drawn) [Example 100, 6-fluoro-N-[(aR)-6-({3-carbamoyl-5H,7H,8H-pyrano[4,3-b]pyridin-2-yl}oxy)spiro[3.3]heptan-2-yl]quinoline-3-carboxamide], with 36.6 nM.
Turning to `Cc1c(C(=O)N[C@H]2C[C@]3(C2)C[C@H](Oc2nn(C)cc2C(N)=O)C3)cnn1-c1ccc(C#N)cc1` (stereo partly drawn) [Example 46, 1-(4-cyanophenyl)-5-methyl-N-[(aR)-6-[(4-carbamoyl-1-methyl-1H-pyrazol-3-yl)oxy]spiro[3.3]heptan-2-yl]-1H-pyrazole-4-carboxamide], the half-inhibitory concentration (IC50) was determined as 359 nM.
Take `CC(C)CC1NC(=O)N([C@H]2C[C@@]3(C[C@H](Oc4nc(C5CC5)sc4C(N)=O)C3)C2)C1=O` (some centres unmarked) [Example 10]: the half-inhibitory concentration (IC50) came out at 27.4 nM.
For the molecule `CC(C)(O)COc1ccc2c(C(=O)N[C@H]3C[C@]4(C3)C[C@H](Oc3nn(-c5ccccc5C#N)cc3C(N)=O)C4)cnn2c1C1CC1` (stereo partly drawn) [Example 31, 1-(2-cyanophenyl)-3-({(aR)-6-[7-cyclopropyl-6-(2-hydroxy-2-methylpropoxy)pyrazolo [1,5-a]pyridine-3-amido]spiro[3.3]heptan-2-yl}oxy)-1H-pyrazole-4-carboxamide], the IC50 is 73.3 nM.
Turning to `CC(C)CC1NC(=O)N([C@H]2CC3(C[C@H](Oc4nn5ccccc5c4C(N)=O)C3)C2)C1=O` (stereo partly drawn) [Example 139, 2-(((2S,4s,6S)-6-(4-isobutyl-2,5-dioxoimidazolidin-1-yl)spiro[3.3]heptan-2-yl)oxy)pyrazolo[1,5-a]pyridine-3-carboxamide], the IC50 is 208 nM.
For the molecule `NC(=O)c1sc(C2CC2)nc1O[C@H]1C[C@@]2(C[C@H](NC(=O)c3cnn4cc(OCC(O)(C(F)(F)F)C(F)(F)F)ccc34)C2)C1` (stereo partly drawn) [Example 61, 2-cyclopropyl-4-{[(aR)-6-{6-[3,3,3-trifluoro-2-hydroxy-2-(trifluoromethyl)propoxy]pyrazolo[1,5-a]pyridine-3-amido}spiro[3.3]heptan-2-yl]oxy}-1,3-thiazole-5-carboxamide], inhibition was half-maximal at 55.5 nM (IC50).
In turn, `Cn1ncc2cc(C(N)=O)c(O[C@H]3C[C@@]4(C[C@H](NC(=O)c5nnc(-c6cccc(S(C)(=O)=O)c6)s5)C4)C3)nc21` (some centres unmarked) [Example 156, 5-(3-methanesulfonylphenyl)-N-[(4s)-6-({5-carbamoyl-1-methyl-1H-pyrazolo[3,4-b]pyridin-6-yl}oxy)spiro[3.3]heptan-2-yl]-1,3,4-thiadiazole-2-carboxamide] gave an IC50 of 4.3 nM.
“2-cyclopropyl-4- {[(aR)-6-{4-[(1R)- 1-hydroxyethyl]-2,5- dioxoimidazolidin-1- yl}spiro[3.3]heptan- 2-yl]oxy}-1,3- thiazole-5- carboxamide [Example 109]” returned an IC50 of 330 nM.
Take `CCn1cc(C(N)=O)c(O[C@H]2C[C@@]3(C[C@H](NC(=O)c4cnn5c(C6CC6)c(OCC(C)(C)O)ccc45)C3)C2)n1` (stereo partly drawn) [Example 19, 3-({(aR)-6-[7-cyclopropyl-6-(2-hydroxy-2-methylpropoxy)pyrazolo [1,5-a]pyridine-3-amido]spiro[3.3]heptan-2-yl}oxy)-1-ethyl-1H-pyrazole-4-carboxamide]: the IC50 was 10.5 nM.
As for `CC(C)(O)COc1ccc2c(C(=O)N[C@H]3C[C@]4(C3)C[C@H](Oc3nc5ccccc5cc3C(N)=O)C4)cnn2c1C1CC1` (stereo partly drawn) [Example 71, 2-(((aR)6-(7-cyclopropyl-6-(2-hydroxy-2-methylpropoxy)pyrazolo [1,5-a]pyridine-3-carboxamido)spiro [3.3]heptan-2-yl)oxy)quinoline-3-carboxamide], the IC50 worked out at 8.7 nM.
Then `Cc1c(C(=O)N[C@H]2C[C@]3(C2)C[C@H](Oc2nn(C(F)F)cc2C(N)=O)C3)cnn1-c1ccc(C#N)cc1` (stereo partly drawn) [Example 54, 1-(4-cyanophenyl)-5-methyl-N-[(aR)-6-{[4-carbamoyl-1-(difluoromethyl)-1H-pyrazol-3-yl]oxy}spiro[3.3]heptan-2-yl]-1H-pyrazole-4-carboxamide], with 253 nM.
`Cc1nc(O[C@H]2C[C@@]3(C[C@H](NC(=O)c4cnn5cc(N6CC(CO)(CCl)C6)ccc45)C3)C2)c(C(N)=O)s1` (stereo partly drawn) [Example 34, 4-[((aR)-6-{6-[3-(chloromethyl)-3-(hydroxymethyl)azetidin-1-yl]pyrazolo[1,5-a]pyridine-3-amido}spiro[3.3]heptan-2-yl)oxy]-2-methyl-1,3-thiazole-5-carboxamide] registered an IC50 of 17.2 nM.
Consider `NC(=O)c1cn(C(F)F)nc1O[C@H]1C[C@@]2(C[C@H](NC(=O)c3cnn4cc(OCC(F)(F)F)ccc34)C2)C1` (stereo partly drawn) [Example 53, 1-(difluoromethyl)-3-{[(aR)-6-[6-(2,2,2-trifluoroethoxy)pyrazolo[1,5-a]pyridine-3-amido]spiro[3.3]heptan-2-yl]oxy}-1H-pyrazole-4-carboxamide], for which the IC50 was determined as 22 nM.
